Patent publication US20110086759A1, “CHEMICAL COMPOUNDS” (SYNGENTA CROP PROTECTION, INC., priority 2007, published 2011)

Experiments:
Type in all cases: in vivo
Setaria faberi (SETFA) [1] = experiment: Pre-emergence biological efficacy, glasshouse pot test; details: 312 h, pre-emergence, 1,000 g/ha, evaluated after 13 days (100=total damage; 0=no damage), read-out: Percentage damage SETFA
Experimental: (§1) Seeds of Alopecurus myosuroides (ALOMY), Setaria faberi (SETFA), Echinochloa crus-galli (ECHCG), Solanum nigrum (SOLNI), Amaranthus retoflexus (AMARE) and Ipomea hederaceae (IPOHE) were sown in standard soil in pots. After cultivation for one day under controlled conditions in a glasshouse (at 24/16° C., day/night; 14 hours light; 65% humidity), the plants were sprayed with an aqueous spray solution derived from the formulation of the technical active ingredient in acetone/water (50:50) solution containing 0.5% Tween 20 (polyoxyethelyene sorbitan monolaurate, CAS RN 9005-64-5) to give a final dose of 1000 or 250 g/ha of test compound.
(§2) The test plants were then grown under controlled conditions in the glasshouse (at 24/16° C., day/night; 14 hours light; 65% humidity) and watered twice daily. After 13 days the test was evaluated (100=total damage to plant; 0=no damage to plant).

[2] = test system: Echinochloa crus-galli (ECHCG); experiment: as above; details: 312 h, pre-emergence, 1,000 g/ha, evaluated after 13 days (100=total damage; 0=no damage), read-out: Percentage damage ECHCG
Experimental: as §1, §2

Solanum nigrum (SOLNI) [3] = experiment: as above; details: 312 h, pre-emergence, 1,000 g/ha, evaluated after 13 days (100=total damage; 0=no damage), read-out: Percentage damage SOLNI
Experimental: as §1, §2

[4] = test system: Alopecurus myosuroides (ALOMY); experiment: as above; details: 312 h, pre-emergence, 1,000 g/ha, evaluated after 13 days (100=total damage; 0=no damage), read-out: Percentage damage ALOMY
Experimental: as §1, §2

[5] = test system: Amaranthus retoflexus (AMARE); experiment: as above; details: Amaranthus retroflexus, 312 h; pre-emergence, 1,000 g/ha, evaluated after 13 days (100=total damage; 0=no damage); read-out: Percentage damage AMARE
Experimental: as §1, §2

[6] = test system: Ipomea hederaceae (IPOHE); experiment: as above; details: Ipomoea hederacea, 312 h; pre-emergence, 1,000 g/ha, evaluated after 13 days (100=total damage; 0=no damage); read-out: Percentage damage IPOHE
Experimental: as §1, §2

Setaria faberi (SETFA) [7] = experiment: Post-emergence biological efficacy, glasshouse pot test; details: 312 h, post-emergence, 1,000 g/ha, evaluated after 13 days (100=total damage; 0=no damage), read-out: Percentage damage caused to weed species, SETFA
Experimental: as §1, with “8 days” for “one day”
(§3) The test plants were then grown on under controlled conditions in a glasshouse (at 24/16° C., day/night; 14 hours light; 65% humidity) and watered twice daily. After 13 days the test was evaluated (100=total damage to plant; 0=no damage to plant).

[8] = test system: Echinochloa crus-galli (ECHCG); experiment: as above; details: 312 h, post-emergence, 1,000 g/ha, evaluated after 13 days (100=total damage; 0=no damage), read-out: Percentage damage caused to weed species, ECHCG
Experimental: as §1, with “8 days” for “one day”
as §3

Solanum nigrum (SOLNI) [9] = experiment: as above; details: 312 h, post-emergence, 1,000 g/ha, evaluated after 13 days (100=total damage; 0=no damage), read-out: Percentage damage caused to weed species, SOLNI
Experimental: as §1, with “8 days” for “one day”
as §3

[10] = test system: Alopecurus myosuroides (ALOMY); experiment: as above; details: 312 h, post-emergence, 1,000 g/ha, evaluated after 13 days (100=total damage; 0=no damage), read-out: Percentage damage caused to weed species, ALOMY
Experimental: as §1, with “8 days” for “one day”
as §3

[11] = test system: Amaranthus retoflexus (AMARE); experiment: as above; details: Amaranthus retroflexus, 312 h; post-emergence, 1,000 g/ha, evaluated after 13 days (100=total damage; 0=no damage); read-out: Percentage damage caused to weed species, AMARE
Experimental: as §1, with “8 days” for “one day”
as §3

[12] = test system: Ipomea hederaceae (IPOHE); experiment: as above; details: Ipomoea hederacea, 312 h; post-emergence, 1,000 g/ha, evaluated after 13 days (100=total damage; 0=no damage); read-out: Percentage damage caused to weed species, IPOHE
Experimental: as §1, with “8 days” for “one day”
as §3

## COC(=O)c1nc(C2CC2)nc(N[C@@H](C)C(=O)OCc2ccccc2)c1Cl [4-272 (S), 5-Chloro-2-cyclopropyl-6-methoxycarbonyl-4-[(1S)-1-(phenylmethoxy-carbonyl)ethylamino]-pyrimidine]
Setaria faberi (SETFA) [1]
  pest or weed control at 1000 g/ha: 20%
[2]
  pest or weed control at 1000 g/ha: 30%
Solanum nigrum (SOLNI) [3]
  pest or weed control at 1000 g/ha: 80%
[4]
  pest or weed control at 1000 g/ha: 10%
[5]
  pest or weed control at 1000 g/ha: 70%
[6]
  pest or weed control at 1000 g/ha: 70%
Setaria faberi (SETFA) [7]
  pest or weed control at 1000 g/ha: 60%
[8]
  pest or weed control at 1000 g/ha: 30%
Solanum nigrum (SOLNI) [9]
  pest or weed control at 1000 g/ha: 80%
[10]
  pest or weed control at 1000 g/ha: 20%
[11]
  pest or weed control at 1000 g/ha: 100%
[12]
  pest or weed control at 1000 g/ha: 60%

## COC(=O)c1nc(C2CC2)nc(N[C@@H](CO)Cc2ccccc2)c1Cl [4-273 (R), 5-Chloro-2-cyclopropyl-4-[(1R)-1-hydroxymethyl-2-phenyl-ethylamino]-6-methoxycarbonyl-pyrimidine]
Setaria faberi (SETFA) [1]
  pest or weed control at 1000 g/ha: 70%
[2]
  pest or weed control at 1000 g/ha: 60%
Solanum nigrum (SOLNI) [3]
  pest or weed control at 1000 g/ha: 80%
[4]
  pest or weed control at 1000 g/ha: 50%
[5]
  pest or weed control at 1000 g/ha: 80%
[6]
  pest or weed control at 1000 g/ha: 100%
Setaria faberi (SETFA) [7]
  pest or weed control at 1000 g/ha: 60%
[8]
  pest or weed control at 1000 g/ha: 60%
Solanum nigrum (SOLNI) [9]
  pest or weed control at 1000 g/ha: 90%
[10]
  pest or weed control at 1000 g/ha: 30%
[11]
  pest or weed control at 1000 g/ha: 100%
[12]
  pest or weed control at 1000 g/ha: 90%

## COC(=O)c1nc(C2CC2)nc(N[C@H](CO)Cc2ccccc2)c1Cl [4-273 (S), 5-Chloro-2-cyclopropyl-4-[(1S)-1-hydroxymethyl-2-phenyl-ethylamino]-6-methoxy-carbonylpyrimidine]
Setaria faberi (SETFA) [1]
  pest or weed control at 1000 g/ha: 80%
[2]
  pest or weed control at 1000 g/ha: 60%
Solanum nigrum (SOLNI) [3]
  pest or weed control at 1000 g/ha: 90%
[4]
  pest or weed control at 1000 g/ha: 40%
[5]
  pest or weed control at 1000 g/ha: 100%
[6]
  pest or weed control at 1000 g/ha: 90%
Setaria faberi (SETFA) [7]
  pest or weed control at 1000 g/ha: 70%
[8]
  pest or weed control at 1000 g/ha: 60%
Solanum nigrum (SOLNI) [9]
  pest or weed control at 1000 g/ha: 100%
[10]
  pest or weed control at 1000 g/ha: 50%
[11]
  pest or weed control at 1000 g/ha: 100%
[12]
  pest or weed control at 1000 g/ha: 90%

## COC(=O)c1nc(C2CC2)nc(N[C@H](CO)[C@H](O)c2ccc([N+](=O)[O-])cc2)c1Cl [4-275 (R,R), 5-Chloro-2-cyclopropyl-4-[(1R, 2R)-2-hydroxy-1-hydroxymethyl-2-(4-nitrophenyl)-ethylamino]-6-methoxycarbonyl-pyrimidine]
Setaria faberi (SETFA) [1]
  pest or weed control at 1000 g/ha: 70%
[2]
  pest or weed control at 1000 g/ha: 60%
Solanum nigrum (SOLNI) [3]
  pest or weed control at 1000 g/ha: 90%
[4]
  pest or weed control at 1000 g/ha: 70%
[5]
  pest or weed control at 1000 g/ha: 100%
[6]
  pest or weed control at 1000 g/ha: 100%
Setaria faberi (SETFA) [7]
  pest or weed control at 1000 g/ha: 80%
[8]
  pest or weed control at 1000 g/ha: 70%
Solanum nigrum (SOLNI) [9]
  pest or weed control at 1000 g/ha: 100%
[10]
  pest or weed control at 1000 g/ha: 30%
[11]
  pest or weed control at 1000 g/ha: 100%
[12]
  pest or weed control at 1000 g/ha: 100%

## COC(=O)c1nc(C2CC2)nc(N[C@@H](CO)[C@@H](O)c2ccc([N+](=O)[O-])cc2)c1Cl [4-275 (S,S), 5-Chloro-2-cyclopropyl-4-[(1S, 2S)-2-hydroxy-1-hydroxymethyl-2-(4-nitrophenyl)-ethylamino]-6-methoxycarbonyl-pyrimidine]
Setaria faberi (SETFA) [1]
  pest or weed control at 1000 g/ha: 60%
[2]
  pest or weed control at 1000 g/ha: 30%
Solanum nigrum (SOLNI) [3]
  pest or weed control at 1000 g/ha: 100%
[4]
  pest or weed control at 1000 g/ha: 30%
[5]
  pest or weed control at 1000 g/ha: 100%
[6]
  pest or weed control at 1000 g/ha: 100%
Setaria faberi (SETFA) [7]
  pest or weed control at 1000 g/ha: 80%
[8]
  pest or weed control at 1000 g/ha: 60%
Solanum nigrum (SOLNI) [9]
  pest or weed control at 1000 g/ha: 100%
[10]
  pest or weed control at 1000 g/ha: 40%
[11]
  pest or weed control at 1000 g/ha: 100%
[12]
  pest or weed control at 1000 g/ha: 70%

## COC(=O)c1nc(C2CC2)nc(N[C@H](CO)CSCc2ccccc2)c1Cl [4-276 (R), 5-Chloro-2-cyclopropyl-4-[(1R)-1-hydroxymethyl-2-phenylmethylthio-ethylamino]-6-methoxycarbonyl-pyrimidine]
Setaria faberi (SETFA) [1]
  pest or weed control at 1000 g/ha: 30%
[2]
  pest or weed control at 1000 g/ha: 30%
Solanum nigrum (SOLNI) [3]
  pest or weed control at 1000 g/ha: 90%
[4]
  pest or weed control at 1000 g/ha: 20%
[5]
  pest or weed control at 1000 g/ha: 100%
[6]
  pest or weed control at 1000 g/ha: 80%
Setaria faberi (SETFA) [7]
  pest or weed control at 1000 g/ha: 40%
[8]
  pest or weed control at 1000 g/ha: 30%
Solanum nigrum (SOLNI) [9]
  pest or weed control at 1000 g/ha: 80%
[10]
  pest or weed control at 1000 g/ha: 20%
[11]
  pest or weed control at 1000 g/ha: 100%
[12]
  pest or weed control at 1000 g/ha: 40%

## COC(=O)c1nc(C2CC2)nc(N[C@H](c2ccccc2)[C@@H](O)c2ccccc2)c1Cl [4-280 (1R,2S), 5-Chloro-2-cyclopropyl-4-[(1R, 2S)-1,2-diphenyl-2-hydroxy-ethyl-amino]-6-methoxy-carbonylpyrimidine]
Setaria faberi (SETFA) [1]
  pest or weed control at 1000 g/ha: 10%
[2]
  pest or weed control at 1000 g/ha: 20%
Solanum nigrum (SOLNI) [3]
  pest or weed control at 1000 g/ha: 80%
[4]
  pest or weed control at 1000 g/ha: 10%
[5]
  pest or weed control at 1000 g/ha: 60%
[6]
  pest or weed control at 1000 g/ha: 90%
Setaria faberi (SETFA) [7]
  pest or weed control at 1000 g/ha: 70%
[8]
  pest or weed control at 1000 g/ha: 50%
Solanum nigrum (SOLNI) [9]
  pest or weed control at 1000 g/ha: 80%
[10]
  pest or weed control at 1000 g/ha: 40%
[11]
  pest or weed control at 1000 g/ha: 100%
[12]
  pest or weed control at 1000 g/ha: 70%

## COC(=O)c1nc(C2CC2)nc(N[C@@H](c2ccccc2)[C@H](O)c2ccccc2)c1Cl [4-280 (1S,2R), 5-Chloro-2-cyclopropyl-4-[(1S, 2R)-1,2-diphenyl-2-hydroxy-ethylamino]-6-methoxycarbonyl-pyrimidine]
Setaria faberi (SETFA) [1]
  pest or weed control at 1000 g/ha: 30%
[2]
  pest or weed control at 1000 g/ha: 40%
Solanum nigrum (SOLNI) [3]
  pest or weed control at 1000 g/ha: 90%
[4]
  pest or weed control at 1000 g/ha: 20%
[5]
  pest or weed control at 1000 g/ha: 100%
[6]
  pest or weed control at 1000 g/ha: 80%
Setaria faberi (SETFA) [7]
  pest or weed control at 1000 g/ha: 80%
[8]
  pest or weed control at 1000 g/ha: 60%
Solanum nigrum (SOLNI) [9]
  pest or weed control at 1000 g/ha: 100%
[10]
  pest or weed control at 1000 g/ha: 40%
[11]
  pest or weed control at 1000 g/ha: 100%
[12]
  pest or weed control at 1000 g/ha: 100%

## COC(=O)c1nc(C2CC2)nc(N[C@@H](CC2CCCCC2)C(=O)OC)c1Cl [4-282 (S), 5-Chloro-4-[(1S)-2-cyclohexyl-1-methoxycarbonyl-ethylamino]-2-cyclopropyl-6-methoxycarbonyl-pyrimidine]
Setaria faberi (SETFA) [1]
  pest or weed control at 1000 g/ha: 20%
[2]
  pest or weed control at 1000 g/ha: 30%
Solanum nigrum (SOLNI) [3]
  pest or weed control at 1000 g/ha: 90%
[4]
  pest or weed control at 1000 g/ha: 10%
[5]
  pest or weed control at 1000 g/ha: 90%
[6]
  pest or weed control at 1000 g/ha: 80%
Setaria faberi (SETFA) [7]
  pest or weed control at 1000 g/ha: 60%
[8]
  pest or weed control at 1000 g/ha: 20%
Solanum nigrum (SOLNI) [9]
  pest or weed control at 1000 g/ha: 80%
[10]
  pest or weed control at 1000 g/ha: 20%
[11]
  pest or weed control at 1000 g/ha: 100%
[12]
  pest or weed control at 1000 g/ha: 80%
